Residue numbers refer to the chain shown, from its start.
Experiments:
R343V hNCRD = biological target: T1, R343V hNCRD (Homo sapiens, UniProt P35247, R363V); test: Mannan competition assay, R343V; format: binding; details: for change in affinity of R343V relative to wild-type: competition assays
T1 sequence (P35247 223-375 R363V limits assumed): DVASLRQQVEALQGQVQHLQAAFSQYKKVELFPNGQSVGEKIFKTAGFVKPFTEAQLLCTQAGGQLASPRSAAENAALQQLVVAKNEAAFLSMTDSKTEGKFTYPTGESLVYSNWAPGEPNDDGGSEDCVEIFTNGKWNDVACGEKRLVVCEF

R343A hNCRD = biological target: T2, R343A hNCRD (Homo sapiens, UniProt P35247, R363A); test: Mannan competition assay, R343A; details: read-out: I50 for inhibition of binding to mannan, one experiment
T2 sequence (P35247 223-375 R363A limits assumed): T1 sequence (P35247 223-375 R363V limits assumed) with V141A

Phil82 IAV [1] = format: binding, influenza A virus
Phil82 IAV [2] = format: cell-based, influenza A virus
Phil82 IAV [3] = format: cell-based, influenza A virus; details: n=5

Compound: OC[C@H]1O[C@H](O[C@@H]2C(O)O[C@H](CO)[C@@H](O)[C@@H]2O)[C@@H](O)[C@@H](O)[C@@H]1O (stereo partly drawn) [alpha1–2 DM, alpha1–2 linked dimannose]
- increase in affinity as compared to wild-type (R343V hNCRD; R343V vs wild-type hNCRD): 7 fold
- change in affinity of R343V relative to wild-type (R343V hNCRD): greatly enhanced binding
- IC50 (R343V hNCRD; read-out: I50 for inhibition of binding to mannan, R343V, n=5): 210 ± 60 µM
- IC50 (R343A hNCRD): 362 µM

Compound: CO[C@H]1O[C@H](CO[C@H]2O[C@H](CO)[C@@H](O)[C@H](O)[C@@H]2O)[C@@H](O)[C@H](O[C@H]2O[C@H](CO)[C@@H](O)[C@H](O)[C@@H]2O)[C@@H]1O [TM core, methyl 3,6-Di-O-(α-D-mannopyranosyl)-α-D-mannopyranoside]
- change in affinity of R343V relative to wild-type (R343V hNCRD): no significant increase in affinity

Compound: hNCRD Wild type: N-terminally tagged trimeric neck+carbohydrate recognition domain fusion protein of human SP-D, wild type
- binding to IAV, solid phase binding assay (Phil82 IAV [1]): no measurable binding
- viral neutralizing activity (Phil82 IAV [2]): lacked
- HA Inhibitory Concentration (Phil82 IAV [3]): >50 µg/mL

Compound: OC[C@H]1O[C@H](OC[C@H]2OC(O)[C@@H](O)[C@@H](O)[C@@H]2O)[C@@H](O)[C@@H](O)[C@@H]1O (stereo partly drawn) [α1–6 dimannose]
- change in affinity of R343V relative to wild-type (R343V hNCRD): no significant increase in affinity

Compound: OC[C@H]1O[C@H](O[C@H]2[C@H](O)[C@@H](CO)OC(O)[C@H]2O)[C@@H](O)[C@@H](O)[C@@H]1O (stereo partly drawn) [α1–3 dimannose]
- change in affinity of R343V relative to wild-type (R343V hNCRD): no significant increase in affinity

Compound: OC[C@H]1OC(O)[C@@H](O)[C@@H](O)[C@@H]1O (stereo partly drawn) [D-mannose]
- change in affinity of R343V relative to wild-type (R343V hNCRD): no significant increase in affinity

Source: article PMC2720784 (Biochemistry, 2009)
